Measured values: ChEMBL document CHEMBL1201862, “PubChem BioAssay data set” (2004)
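Cells were grown in 96-well plates and exposed to each compound for 48 hours at five concentrations; endpoints were interpolated linearly between bracketing concentrations, or set to the highest concentration if not reached. GI50 = concentration required for 50% inhibition of growth.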 Activity calls are given as the source filed them. Cut-off read from the data, not from the text of the source: active = GI50 up to about 1.1 µM and inactive = higher.

Assays:
Test in all cases: NCI anticancer screen, dose series, 48 h
[1] = test system: XF498
[2] = test system: DMS-273
[3] = test system: DLD-1
[4] = test system: LXFL 529
[5] = test system: KM-20L2
[6] = test system: DMS-114
[7] = test system: HOP-18
[8] = test system: SNB-78
[9] = test system: RXF 631

CN(C)NC1=C([N+](=O)[O-])C=NN(c2ccccc2)C1
GI50 [1]: 2.36 µM (inactive) | GI50 [2]: 1.75 µM (inactive) | GI50 [3]: 1.83 µM (inactive) | GI50 [4]: 1.65 µM (inactive) | GI50 [5]: 1.9 µM (inactive) | GI50 [6]: 1.84 µM (inactive) | GI50 [7]: 1.81 µM (inactive) | GI50 [8]: 2.17 µM (inactive) | GI50 [9]: 1.53 µM (inactive)

COc1ccc(N(C)Sc2ccccc2)cc1
GI50 [1]: 24 µM (inactive) | GI50 [2]: 34.4 µM (inactive) | GI50 [3]: 47.5 µM (inactive) | GI50 [4]: 45.3 µM (inactive) | GI50 [5]: 55.6 µM (inactive) | GI50 [6]: 36.6 µM (inactive) | GI50 [7]: 68.4 µM (inactive) | GI50 [8]: > 100 µM (inactive)

Cc1cc2c3ccccc3n(C)c2c2c1C(=O)C=CC2=O
GI50 [1]: 16.3 µM (inactive) | GI50 [2]: 13.3 µM (inactive) | GI50 [3]: 12.7 µM (inactive) | GI50 [4]: 3.99 µM (inactive) | GI50 [6]: 6.05 µM (inactive) | GI50 [8]: 17.4 µM (inactive)

C=C=C(C(=O)OC)[S+]([O-])c1ccc([N+](=O)[O-])cc1[N+](=O)[O-] (centres undefined)
GI50 [1]: 39.1 µM (inactive) | GI50 [2]: 37.4 µM (inactive) | GI50 [3]: 16.2 µM (inactive) | GI50 [4]: 16.8 µM (inactive) | GI50 [5]: 26.5 µM (inactive) | GI50 [6]: 21 µM (inactive) | GI50 [7]: 44.2 µM (inactive) | GI50 [9]: 42 µM (inactive)

COCOCCCCCO[Si](C)(C)C(C)(C)C
GI50 [1]: 15.7 µM (inactive) | GI50 [3]: 31.6 µM (inactive) | GI50 [4]: 26.9 µM (inactive) | GI50 [5]: 22.8 µM (inactive) | GI50 [6]: 17.5 µM (inactive) | GI50 [7]: 30.8 µM (inactive) | GI50 [8]: 22.8 µM (inactive) | GI50 [9]: 19.4 µM (inactive)

CN(C)CCNC(=O)c1cccc2c1nc(-c1ccccn1)c1ccccc12
GI50 [2]: 13.5 µM (inactive) | GI50 [3]: 11.9 µM (inactive) | GI50 [6]: 18.3 µM (inactive) | GI50 [7]: 21.4 µM (inactive) | GI50 [8]: 25.3 µM (inactive)

COc1ccc(N2C(=O)[C@H]3[C@H]4CC(C(C)(C)C)CC[C@H]4c4c(n(C)c5ccccc45)[C@H]3C2=O)cc1 (some centres undefined)
GI50 [1]: > 100 µM (inactive) | GI50 [2]: > 100 µM (inactive) | GI50 [3]: < 0.01 µM (active) | GI50 [4]: > 100 µM (inactive) | GI50 [6]: > 100 µM (inactive) | GI50 [7]: > 100 µM (inactive)

S=C1OC2C3C4CC5C3C(O1)C1C5C4C21 (centres undefined)
GI50 [2]: 89.1 µM (inactive) | GI50 [3]: > 100 µM (inactive) | GI50 [4]: > 100 µM (inactive) | GI50 [5]: > 100 µM (inactive) | GI50 [6]: 45.6 µM (inactive) | GI50 [7]: > 100 µM (inactive) | GI50 [8]: > 100 µM (inactive)

CCn1c(CSc2nc(-c3ccccc3)c(-c3ccccc3)[nH]2)n[nH]c1=S
GI50 [1]: > 100 µM (inactive) | GI50 [2]: > 100 µM (inactive) | GI50 [3]: > 100 µM (inactive) | GI50 [4]: > 100 µM (inactive) | GI50 [5]: > 100 µM (inactive) | GI50 [6]: > 100 µM (inactive) | GI50 [8]: > 100 µM (inactive)

COc1ccc(OC)c(NC(=O)CCC/C(CC(=O)c2ccc(O)c(OC)c2)=N\NC(=O)C[N+](C)(C)C)c1
GI50 [1]: > 100 µM (inactive) | GI50 [2]: > 100 µM (inactive) | GI50 [3]: > 100 µM (inactive) | GI50 [4]: > 100 µM (inactive) | GI50 [5]: > 100 µM (inactive) | GI50 [6]: > 100 µM (inactive) | GI50 [7]: > 100 µM (inactive) | GI50 [9]: > 100 µM (inactive)

COc1ccc(C(=O)NCCC2=CCCCC2)cc1
GI50 [1]: > 100 µM (inactive) | GI50 [2]: > 100 µM (inactive) | GI50 [3]: > 100 µM (inactive) | GI50 [5]: > 100 µM (inactive) | GI50 [6]: > 100 µM (inactive) | GI50 [7]: > 100 µM (inactive) | GI50 [8]: > 100 µM (inactive)

[O-][S+]1CSCS1 (centres undefined)
GI50 [1]: > 100 µM (inactive) | GI50 [2]: > 100 µM (inactive) | GI50 [3]: > 100 µM (inactive) | GI50 [4]: > 100 µM (inactive) | GI50 [5]: > 100 µM (inactive) | GI50 [6]: > 100 µM (inactive) | GI50 [7]: > 100 µM (inactive) | GI50 [8]: 91.8 µM (inactive) | GI50 [9]: 85.9 µM (inactive)

O=C(c1ccc(Cl)cc1)c1ccc(OCCCOc2ccc(C(=O)c3ccc(Cl)cc3)cc2)cc1
GI50 [1]: > 100 µM (inactive) | GI50 [2]: > 100 µM (inactive) | GI50 [3]: > 100 µM (inactive) | GI50 [4]: > 100 µM (inactive) | GI50 [5]: > 100 µM (inactive) | GI50 [6]: > 100 µM (inactive)

N#Cc1c(-c2ccco2)cc(-c2ccc(N)cc2)[nH]c1=O
GI50 [2]: > 100 µM (inactive) | GI50 [3]: > 100 µM (inactive) | GI50 [4]: > 100 µM (inactive) | GI50 [5]: > 100 µM (inactive) | GI50 [6]: > 100 µM (inactive) | GI50 [7]: > 100 µM (inactive) | GI50 [9]: > 100 µM (inactive)

CC12N=NN(c3ccc([N+](=O)[O-])cc3)C1(O)c1ccccc1C2=O (centres undefined)
GI50 [1]: > 100 µM (inactive) | GI50 [2]: > 100 µM (inactive) | GI50 [4]: > 100 µM (inactive) | GI50 [5]: > 100 µM (inactive) | GI50 [6]: > 100 µM (inactive)

Cc1cc(NS(=O)(=O)c2ccc(Nc3c4ccccc4nc4c(C(=O)Nc5ccc(S(=O)(=O)N=C(N)N)cc5)ccc(Cl)c34)cc2)no1
GI50 [1]: 31.4 µM (inactive) | GI50 [2]: 40.6 µM (inactive) | GI50 [3]: 47.3 µM (inactive) | GI50 [4]: 31.3 µM (inactive) | GI50 [5]: 98.4 µM (inactive) | GI50 [6]: 27.1 µM (inactive) | GI50 [7]: 16.4 µM (inactive) | GI50 [8]: 23.4 µM (inactive)

CC(=O)O[C@H]1C(=O)[C@@]2(C)C([C@H](OC(=O)c3ccccc3)[C@]3(O)C[C@H](OC(=O)[C@H](O)[C@@H](NC(=O)c4ccc(Cl)cc4)c4ccccc4)C(C)=C1C3(C)C)C1(OC(C)=O)CO[C@@H]1C[C@@H]2O (some centres undefined)
GI50 [1]: 0.0303 µM (active) | GI50 [3]: 0.0222 µM (active) | GI50 [4]: < 0.01 µM (active) | GI50 [5]: < 0.01 µM (active) | GI50 [6]: < 0.01 µM (active)

COc1ccc(C2=C[C@]3(O)CCCN3C[C@@H]2c2ccc(OC)c(OC)c2)cc1
GI50 [1]: < 0.0001 µM (active) | GI50 [2]: < 0.0001 µM (active) | GI50 [3]: < 0.0001 µM (active) | GI50 [4]: < 0.0001 µM (active) | GI50 [5]: < 0.0001 µM (active) | GI50 [7]: < 0.0001 µM (active) | GI50 [8]: < 0.0001 µM (active)

COc1ccc(O)c(C(=O)CCC(=O)O)c1
GI50 [1]: > 100 µM (inactive) | GI50 [2]: > 100 µM (inactive) | GI50 [3]: > 100 µM (inactive) | GI50 [4]: > 100 µM (inactive) | GI50 [6]: > 100 µM (inactive) | GI50 [8]: > 100 µM (inactive) | GI50 [9]: > 100 µM (inactive)

CC1(Cl)CC2OC3(Br)C=CC(C)(O)C2(CC1Br)C3(C)C (centres undefined)
GI50 [2]: > 100 µM (inactive) | GI50 [3]: > 100 µM (inactive) | GI50 [4]: > 100 µM (inactive) | GI50 [5]: > 100 µM (inactive) | GI50 [6]: > 100 µM (inactive) | GI50 [7]: > 100 µM (inactive) | GI50 [8]: > 100 µM (inactive)

CC1CC(C)C(=O)C(C(=O)CC2CC(=O)NC2=O)C1 (centres undefined)
GI50 [1]: > 100 µM (inactive) | GI50 [2]: > 100 µM (inactive) | GI50 [3]: > 100 µM (inactive) | GI50 [4]: > 100 µM (inactive) | GI50 [5]: > 100 µM (inactive) | GI50 [6]: > 100 µM (inactive) | GI50 [7]: > 100 µM (inactive) | GI50 [8]: > 100 µM (inactive) | GI50 [9]: 72.6 µM (inactive)

Cc1cc([N+](=O)[O-])c(S(=O)(=O)c2ccccc2)c([N+](=O)[O-])c1
GI50 [1]: 4.35 µM (inactive) | GI50 [2]: 12.9 µM (inactive) | GI50 [3]: 4 µM (inactive) | GI50 [4]: 3.66 µM (inactive) | GI50 [5]: 17.9 µM (inactive) | GI50 [6]: 3.14 µM (inactive) | GI50 [7]: 16.1 µM (inactive) | GI50 [8]: 17.2 µM (inactive) | GI50 [9]: 38.6 µM (inactive)

Cc1c(CCCl)c(Cl)n2c(nc3ccccc32)c1C#N
GI50 [2]: 0.457 µM (active) | GI50 [3]: 1.12 µM (active) | GI50 [4]: 0.459 µM (active) | GI50 [5]: 0.641 µM (active) | GI50 [6]: 1.13 µM (inactive) | GI50 [7]: 1.51 µM (inactive) | GI50 [8]: 1.77 µM (inactive) | GI50 [9]: 0.568 µM (active)

O=C(Nc1ccc(Br)cc1)C(=O)C(C(=O)c1ccccc1F)C1OC(=O)c2ccccc21 (centres undefined)
GI50 [2]: 31 µM (inactive) | GI50 [3]: 26.2 µM (inactive) | GI50 [4]: 23.1 µM (inactive) | GI50 [5]: 40.1 µM (inactive) | GI50 [6]: 14 µM (inactive) | GI50 [7]: 26.7 µM (inactive) | GI50 [8]: 27.8 µM (inactive) | GI50 [9]: 34.8 µM (inactive)

O=C(O)CSc1nnc(-c2ccco2)[nH]1
GI50 [1]: > 100 µM (inactive) | GI50 [2]: > 100 µM (inactive) | GI50 [3]: > 100 µM (inactive) | GI50 [4]: > 100 µM (inactive) | GI50 [5]: > 100 µM (inactive) | GI50 [8]: > 100 µM (inactive) | GI50 [9]: > 100 µM (inactive)

CN(C)c1nc(N(C)C)nc(N(C)C)n1 [ALTRETAMINE]
GI50 [1]: 109 µM (inactive) | GI50 [2]: > 140 µM (inactive) | GI50 [3]: > 132 µM (inactive) | GI50 [4]: > 150 µM (inactive) | GI50 [5]: > 150 µM (inactive) | GI50 [6]: > 148 µM (inactive) | GI50 [7]: 53.3 µM (inactive) | GI50 [8]: > 150 µM (inactive)
